The source of these data is BindingDB's records for doi:10.1021/jm8009124 (University of Connecticut At Storrs, 2008).

The target in this experiment is T1, Bifunctional dihydrofolate reductase-thymidylate synthase (Cryptosporidium parvum, UniProt Q27552).
T1 sequence (Q27552 whole entry): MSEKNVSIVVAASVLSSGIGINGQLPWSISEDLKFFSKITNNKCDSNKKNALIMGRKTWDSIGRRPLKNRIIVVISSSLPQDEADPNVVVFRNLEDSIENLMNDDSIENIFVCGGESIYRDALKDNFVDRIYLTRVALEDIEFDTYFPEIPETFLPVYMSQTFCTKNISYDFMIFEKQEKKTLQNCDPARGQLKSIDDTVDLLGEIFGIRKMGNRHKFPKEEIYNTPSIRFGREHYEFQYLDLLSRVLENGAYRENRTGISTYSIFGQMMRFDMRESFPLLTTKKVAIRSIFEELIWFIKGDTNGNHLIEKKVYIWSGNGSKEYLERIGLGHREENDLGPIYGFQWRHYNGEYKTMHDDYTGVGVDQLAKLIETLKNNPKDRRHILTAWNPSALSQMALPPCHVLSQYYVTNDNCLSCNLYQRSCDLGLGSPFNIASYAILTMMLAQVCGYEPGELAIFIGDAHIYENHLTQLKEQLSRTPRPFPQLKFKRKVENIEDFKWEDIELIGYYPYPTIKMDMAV
In words: DHFR Inhibition Assay. Conditions: pH 7; 25 °C. As to the method:
Enzyme activity assays were performed by monitoring the change in UV absorbance at 340 nm. Enzyme assays were performed at least four times. IC50 values and their standard deviations were calculated in the presence of varying ligand concentration.

As a reminder, the IC50 is the concentration that inhibits the measured activity by half. In turn, `COc1cc(C(C)C#Cc2c(C)nc(N)nc2N)ccc1-c1ccccc1C` (stereo unspecified) [5-{3-[3-methoxy-4-(2-methylphenyl)phenyl]but-1-yn-1-yl}-6-methylpyrimidine-2,4-diamine] had a 50% inhibitory concentration (IC50) of 36 nM.
The compound `COc1cc(-c2ccccc2)cc([C@@H](C)C#Cc2c(C)nc(N)nc2N)c1` [5-[(3R)-3-(3-methoxy-5-phenylphenyl)but-1-yn-1-yl]-6-methylpyrimidine-2,4-diamine] yielded an IC50 of 1.1 nM.
Regarding `COc1cc(C(C)C#Cc2c(C)nc(N)nc2N)ccc1-c1ccccc1` (stereo unspecified) [5-[3-(3-methoxy-4-phenylphenyl)but-1-yn-1-yl]-6-methylpyrimidine-2,4-diamine], the IC50 was determined as 19 nM.
With `COc1cc(-c2ccccc2)cc([C@H](C)C#Cc2c(C)nc(N)nc2N)c1` [5-[(3S)-3-(3-methoxy-5-phenylphenyl)but-1-yn-1-yl]-6-methylpyrimidine-2,4-diamine], the IC50 is 30 nM.
`COc1cc(-c2c(C(C)C)cccc2C(C)C)cc(C(C)C#Cc2c(C)nc(N)nc2N)c1` (stereo unspecified) [5-(3-{3-[2,6-bis(propan-2-yl)phenyl]-5-methoxyphenyl}but-1-yn-1-yl)-6-methylpyrimidine-2,4-diamine] came in with an IC50 of 10 nM.
As for `COc1cc(C(C)C#Cc2c(C)nc(N)nc2N)ccc1-c1c(C)cccc1C` (stereo unspecified) [5-{3-[4-(2,6-dimethylphenyl)-3-methoxyphenyl]but-1-yn-1-yl}-6-methylpyrimidine-2,4-diamine], the figure is 7.4 nM.
